Assays:
[1] = system: SLEV infection in Vero CCL81 cells; assay: microbe, parasite or virus in culture; type: cell-based, St. Louis encephalitis virus (SLEV BeH 355964); details: for EC50: St. Louis encephalitis virus, 72 h
[2] = system: SLEV; assay: Viral load by plaque-forming assay, SLEV-infected Vero CCL81; type: cell-based, St. Louis encephalitis virus (SLEV BeH 355964); details: Vero CCL81, MOI 0.1
[3] = system: Vero CCL81 cells; assay: Confirmatory dose-response assay, cytotoxicity (CC50); details: Vero CCL81, dose-response 100 to 0.32 µM
[4] = as above; details: African green monkey, Vero CCL81 cells
[5] = system: Vero CCL81 cells; assay: MTT cell viability assay, Vero CCL81
[6] = system: SLEV; assay: Viral load by plaque-forming assay, SLEV-infected Huh-7; type: cell-based, St. Louis encephalitis virus (SLEV BeH 355964); details: Huh-7, MOI 0.1, 48 h
[7] = system: Huh-7 cells; assay: MTT cell viability assay, Huh-7; details: Huh-7, 48 h; for loss/reduction in cell viability vs vehicle-treated cells: 20 µM
[8] = system: SLEV; assay: Viral load by plaque-forming assay, SLEV-infected HBEC-5i; type: cell-based, St. Louis encephalitis virus (SLEV BeH 355964)
[9] = system: HBEC-5i cells; assay: MTT cell viability assay, HBEC-5i; details: HBEC-5i; for reduction in cell viability / toxicity: 20 µM, 48 h; for toxicity at lower concentrations: 20 µM to 2.5 µM, MOI 0.1, 48 h (Figure 5)
[10] = system: SLEV infection in Vero CCL81 cells; type: cell-based, St. Louis encephalitis virus (SLEV BeH 355964); details: 20 µM
[11] = MTT cell viability assay, HBEC-5i; details: human, HBEC-5i cells

## C[C@@]1(O)[C@H](O)[C@@H](CO)O[C@H]1n1ccc2c(N)ncnc21 [7DMA, 7-deaza-2′-C-methyl-D-adenosine]
[1]
  EC50: 5.1 µM
[2]; 40 µM (7DMA)
  reduction in viral load relative to vehicle-treated controls: approximately 10 fold
[3]
  CC50: least cytotoxic
[4]
  CC50 at 72 h: > 100 µM
[5]; 40 µM (7DMA), Vero CCL81
  reduction in cell viability: less than 10%
[6]; 40 µM (7DMA)
  reduction in viral load: 10 fold
[7]; 40 µM (7DMA)
  reduction in cell viability vs vehicle-treated cells: approx. 10%

## C[C@@H]1CCCN1CCc1cc2cc(-c3ccc(C#N)cc3)ccc2o1 [ABT-239, 4-(2-{2-[(2R)-2-Methylpyrrolidinyl]ethyl}-benzofuran-5-yl)benzonitrile]
[1]
  EC50: 3.4 µM
[2]; 20 µM
  reduction in viral load relative to vehicle-treated controls: approximately 10 fold
[8]; 20 µM, MOI 0.1, 48 h
  reduction in viral titers in culture supernatant: approx. 10 fold
[4]
  CC50 at 72 h: 80.2 µM
[9]
  reduction in cell viability / toxicity: not toxic
[7]
  loss/reduction in cell viability vs vehicle-treated cells: approx. 10%
[10]
  inhibition of SLEV-induced CPE (hit call, cytoprotective effect): cytoprotective effect

## CCCCc1oc2ccccc2c1C(=O)c1cc(I)c(OCCN(CC)CC)c(I)c1 [Amiodarone]
[8]; 20 µM, MOI 0.1, 48 h
  reduction in viral titers in culture supernatant: over 10 fold
[6]; 20 µM
  reduction in viral load: not significant
[7]
  loss/reduction in cell viability vs vehicle-treated cells: approx. 10%
[10]
  inhibition of SLEV-induced CPE (hit call, cytoprotective effect): cytoprotective effect

## OCCN1CCN(CCCN2c3ccccc3Sc3ccc(C(F)(F)F)cc32)CC1 [Fluphenazine]
[8]; 20 µM, MOI 0.1, 48 h
  reduction in viral titers in culture supernatant: > 100 fold
[8]; 20 µM, MOI 0.1, 48 h, concentration series (Figure 5)
  reduction in viral load: over 50 fold
[4]
  CC50 at 72 h: 30.2 µM
[9]
  toxicity at lower concentrations: not toxic
  reduction in cell viability / toxicity: not toxic
[7]
  loss/reduction in cell viability vs vehicle-treated cells: 90%
[10]
  inhibition of SLEV-induced CPE (hit call, cytoprotective effect): cytoprotective effect

## FC(F)(F)c1ccc(CNc2ccc(Cc3c[nH]c4ncc(Cl)cc34)cn2)cn1 [Pexidartanib]
[10]
  inhibition of SLEV-induced CPE (hit call, cytoprotective effect): cytoprotective effect

## CC[C@@H]([C@H](C)O)n1ncn(-c2ccc(N3CCN(c4ccc(OC[C@@H]5CO[C@@](Cn6cncn6)(c6ccc(F)cc6F)C5)cc4)CC3)cc2)c1=O [Posaconazole]
[1]
  EC50: 0.4 µM
[1]; Vero CCL81
  Selectivity Index (SI, CC50/EC50 ratio): ≥ 12
[3]
  CC50: least cytotoxic
[4]
  CC50 at 72 h: > 100 µM
[5]; 20 µM, Vero CCL81, vs non-treated controls
  reduction in cell viability: 40%
[9]
  reduction in cell viability / toxicity: approximately 70%
[7]
  loss/reduction in cell viability vs vehicle-treated cells: 50%
[10]
  inhibition of SLEV-induced CPE (hit call, cytoprotective effect): cytoprotective effect

## NCCc1cn(S(=O)(=O)c2c(Cl)nc3sccn23)c2ccccc12 [SAX-187]
[10]
  inhibition of SLEV-induced CPE (hit call, cytoprotective effect): cytoprotective effect

## CCN(CC)CCOc1ccc(C(O)(Cc2ccc(Cl)cc2)c2ccc(C)cc2)cc1 (stereo not shown) [Triparanol]
[1]
  EC50: 0.9 µM
[8]; 2.5 µM, MOI 0.1, 48 h (Figure 5)
  antiviral effect (viral load): lost
[8]; 5 µM, MOI 0.1, 48 h (Figure 5)
  antiviral effect (viral load): lost
[8]; 10 µM, MOI 0.1, 48 h (Figure 5)
  reduction in viral load vs vehicle-treated infected group: over 10 fold
[4]
  CC50 at 72 h: 18.5 µM
[9]
  toxicity at lower concentrations: not toxic
  reduction in cell viability / toxicity: ~60%
[7]
  loss/reduction in cell viability vs vehicle-treated cells: 90%
[10]
  inhibition of SLEV-induced CPE (hit call, cytoprotective effect): cytoprotective effect

## COc1cccc(-c2ccc(NC(=O)C3=C(C(=O)O)CCC3)c(F)c2)c1 [Vidofludimus]
[1]
  EC50: 8.2 µM
[2]; 20 µM
  reduction in viral load relative to vehicle-treated controls: approximately 10 fold
[8]; 20 µM, MOI 0.1, 48 h
  reduction in viral titers in culture supernatant: No antiviral activity
[3]
  CC50: least cytotoxic
[4]
  CC50 at 72 h: > 100 µM
[11]
  viability at 48 h, 20 µM: ≤ 90%
[7]
  loss/reduction in cell viability vs vehicle-treated cells: approx. 10%
[10]
  inhibition of SLEV-induced CPE (hit call, cytoprotective effect): cytoprotective effect

From paper PMC10747599 (Viruses, 2023)
